Assay results from patent publication US6906097B2, “8-azaprostaglandin analogs as agents for lowering intraocular pressure” (Allergan, Inc., priority 2002, dated 2005).

Experiments:
hEP1 = biological target: T1, hEP1 (Homo sapiens, UniProt P34995); assay: Functional data, human recombinant EP1 receptor stable transfectants; type: cell-based
T1 construct: expressed in transfected cells
T1 sequence (P34995 1-402): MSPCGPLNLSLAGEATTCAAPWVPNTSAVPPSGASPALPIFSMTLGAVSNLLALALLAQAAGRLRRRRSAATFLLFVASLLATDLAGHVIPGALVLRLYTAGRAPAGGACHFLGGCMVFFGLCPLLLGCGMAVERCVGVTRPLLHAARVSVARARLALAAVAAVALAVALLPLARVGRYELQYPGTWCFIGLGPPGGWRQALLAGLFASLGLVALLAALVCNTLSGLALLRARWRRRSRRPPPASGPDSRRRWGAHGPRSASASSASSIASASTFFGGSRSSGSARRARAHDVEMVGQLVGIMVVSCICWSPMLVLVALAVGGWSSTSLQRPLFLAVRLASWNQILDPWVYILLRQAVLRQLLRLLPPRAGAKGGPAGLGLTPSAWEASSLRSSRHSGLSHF
Procedure: (§1) Human Recombinant EP1, EP2, EP3, EP4, FP, TP, IP and DP Receptors: Stable Transfectants
(§2) Plasmids encoding the human EP1, EP2, EP3, EP4, FP, TP, IP and DP receptors were prepared by cloning the respective coding sequences into the eukaryotic expression vector pCEP4 (Invitrogen). The pCEP4 vector contains an Epstein Barr virus (EBV) origin of replication, which permits episomal replication in primate cell lines expressing EBV nuclear antigen (EBNA-1). It also contains a hygromycin resistance gene that is used for eukaryotic selection. The cells employed for stable transfection were human embryonic kidney cells (HEK-293) that were transfected with and express the EBNA-1 protein. These HEK-293-EBNA cells (Invitrogen) were grown in medium containing Geneticin (G418) to maintain expression of the EBNA-1 protein. HEK-293 cells were grown in DMEM with 10% fetal bovine serum (FBS), 250 μg ml^−1 G418 (Life Technologies) and 200 μg ml^−1 gentamicin or penicillin/streptomycin.
(§3) For transfection, the cells were grown to 50-60% confluency on 10 cm plates. The plasmid pCEP4 incorporating cDNA inserts for the respective human prostanoid receptor (20 μg) was added to 500 μl of 250 mM CaCl2. HEPES buffered saline×2 (2×HBS, 280 mM NaCl, 20 mM HEPES acid, 1.5 mM Na2 HPO4, pH 7.05-7.12) was then added dropwise to a total of 500 μl, with continuous vortexing at room temperature. After 30 min, 9 ml DMEM were added to the mixture. The DNA/DMEM/calcium phosphate mixture was then added to the cells, which had been previously rinsed with 10 ml PBS. The cells were then incubated for 5 hr at 37° C. in humidified 95% air/5% CO2. The calcium phosphate solution was then removed and the cells were treated with 10% glycerol in DMEM for 2 min. The glycerol solution was then replaced by DMEM with 10% FBS. The cells were incubated overnight and the medium was replaced by DMEM/10% FBS containing 250 μg ml^−1 G418 and penicillin/streptomycin. The following day hygromycin B was added to a final concentration of 200 μg ml^−1.
(§4) Ten days after transfection, hygromycin B resistant clones were individually selected and transferred to a separate well on a 24 well plate. At confluence each clone was transferred to one well of a 6 well plate, and then expanded in a 10 cm dish. Cells were maintained under continuous hygromycin selection until use.

hEP3A = biological target: T2, hEP3A (Homo sapiens, UniProt P43115); assay: Functional data, human recombinant EP3A receptor stable transfectants; type: cell-based
T2 construct: expressed in transfected cells
T2 sequence (P43115 1-390): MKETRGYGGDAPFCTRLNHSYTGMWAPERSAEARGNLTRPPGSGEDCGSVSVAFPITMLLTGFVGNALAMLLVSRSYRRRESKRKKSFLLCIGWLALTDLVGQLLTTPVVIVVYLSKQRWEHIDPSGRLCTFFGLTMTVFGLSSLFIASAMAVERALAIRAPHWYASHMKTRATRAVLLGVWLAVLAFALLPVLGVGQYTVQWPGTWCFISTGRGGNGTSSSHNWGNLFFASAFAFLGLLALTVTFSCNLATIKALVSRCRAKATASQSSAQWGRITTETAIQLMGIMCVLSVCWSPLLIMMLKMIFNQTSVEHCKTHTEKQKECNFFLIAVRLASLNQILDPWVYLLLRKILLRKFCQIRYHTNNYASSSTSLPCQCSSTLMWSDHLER
Procedure: as §1
as §2, with “The cells employed for stable transfection were human embryonic kidney cells (HEK-293) that were transfected with and express the EBNA-1 protein. These HEK-293-EBNA cells (Invitrogen) were grown in medium containing Geneticin (G418) to maintain expression of the EBNA-1 protein.” left out
as §3, with “HEPES buffered saline×2 (2×HBS, 280 mM NaCl, 20 mM HEPES acid, 1.5 mM Na2 HPO4, pH 7.05-7.12) was then added dropwise to a total of 500 μl, with continuous vortexing at room temperature.” left out
as §4

hEP4 [1] = biological target: T3, hEP4 (Homo sapiens, UniProt P35408); assay: Functional data, human recombinant EP4 receptor stable transfectants; type: cell-based
T3 construct: expressed in transfected cells
T3 sequence (P35408 whole entry): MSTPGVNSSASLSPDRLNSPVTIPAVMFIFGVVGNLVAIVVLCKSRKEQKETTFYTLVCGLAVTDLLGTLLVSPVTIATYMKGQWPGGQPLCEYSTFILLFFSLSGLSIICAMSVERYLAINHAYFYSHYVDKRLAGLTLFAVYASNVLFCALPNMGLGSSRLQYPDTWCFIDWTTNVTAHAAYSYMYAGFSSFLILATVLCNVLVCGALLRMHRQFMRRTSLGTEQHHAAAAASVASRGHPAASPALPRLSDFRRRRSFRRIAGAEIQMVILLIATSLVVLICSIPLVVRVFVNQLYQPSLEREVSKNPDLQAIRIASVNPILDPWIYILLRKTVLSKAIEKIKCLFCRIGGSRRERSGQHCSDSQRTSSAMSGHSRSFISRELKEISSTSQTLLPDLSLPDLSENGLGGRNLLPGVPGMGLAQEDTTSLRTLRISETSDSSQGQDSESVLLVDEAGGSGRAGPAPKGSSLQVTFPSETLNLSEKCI
Procedure: as §1
as §2, with “The cells employed for stable transfection were human embryonic kidney cells (HEK-293) that were transfected with and express the EBNA-1 protein. These HEK-293-EBNA cells (Invitrogen) were grown in medium containing Geneticin (G418) to maintain expression of the EBNA-1 protein.” left out
as §3, with “HEPES buffered saline×2 (2×HBS, 280 mM NaCl, 20 mM HEPES acid, 1.5 mM Na2 HPO4, pH 7.05-7.12) was then added dropwise to a total of 500 μl, with continuous vortexing at room temperature.” left out
as §4

hTP = biological target: T4, hTP (Homo sapiens, UniProt P21731); assay: Functional data, human recombinant TP receptor stable transfectants; type: cell-based
T4 construct: expressed in transfected cells
T4 sequence (P21731 1-343): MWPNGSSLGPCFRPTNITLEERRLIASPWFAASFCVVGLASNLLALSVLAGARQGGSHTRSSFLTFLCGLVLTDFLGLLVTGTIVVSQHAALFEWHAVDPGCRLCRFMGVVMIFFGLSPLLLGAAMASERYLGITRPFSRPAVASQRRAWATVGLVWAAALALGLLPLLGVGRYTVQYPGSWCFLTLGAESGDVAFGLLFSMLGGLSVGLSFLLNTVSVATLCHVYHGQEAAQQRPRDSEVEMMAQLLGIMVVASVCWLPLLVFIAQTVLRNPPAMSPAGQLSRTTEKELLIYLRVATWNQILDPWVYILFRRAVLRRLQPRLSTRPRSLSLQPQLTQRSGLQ
Procedure: as §1, §2, §3, §4

hEP2 = biological target: T5, hEP2 (Homo sapiens, UniProt P43116); assay: Radioligand binding, hEP2; conditions: [3H]PGE2 competition
T5 construct: expressed in transfected cells
T5 sequence (P43116 whole entry): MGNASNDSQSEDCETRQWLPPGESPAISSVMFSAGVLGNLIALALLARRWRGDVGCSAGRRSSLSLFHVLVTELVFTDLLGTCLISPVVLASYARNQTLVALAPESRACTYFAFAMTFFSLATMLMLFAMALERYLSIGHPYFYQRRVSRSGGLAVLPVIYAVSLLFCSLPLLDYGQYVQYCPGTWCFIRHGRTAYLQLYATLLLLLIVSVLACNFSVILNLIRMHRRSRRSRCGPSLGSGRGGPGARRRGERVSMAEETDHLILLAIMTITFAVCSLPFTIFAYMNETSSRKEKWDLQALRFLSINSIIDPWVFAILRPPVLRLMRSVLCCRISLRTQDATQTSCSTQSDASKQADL
Procedure: as §1
as §2, with “HEK-293 cells were grown in DMEM with 10% fetal bovine serum (FBS), 250 μg ml^−1 G418 (Life Technologies) and 200 μg ml^−1 gentamicin or penicillin/streptomycin.” left out
Radioligand binding studies on plasma membrane fractions prepared for cells stably transfected with the cat or human receptor were performed as follows. […] The pellet was then resuspended in TME buffer to provide a final protein concentration of 1 mg/ml, as determined by Bio-Rad assay. […]
The binding of [^3H](N) PGE2 (specific activity 165 Ci/mmol) was determined in duplicate and in at least 3 separate experiments. […] Competition studies were performed using a final concentration of 2.5 or 5 nM [^3H](N) PGE2 and non-specific binding was determined with 10^−5 M unlabelled PGE2.

hEP4 [2] = biological target: T3, hEP4; assay: Radioligand binding, hEP4; conditions: [3H]PGE2 competition
Procedure: as §1
as §2, with “The cells employed for stable transfection were human embryonic kidney cells (HEK-293) that were transfected with and express the EBNA-1 protein. These HEK-293-EBNA cells (Invitrogen) were grown in medium containing Geneticin (G418) to maintain expression of the EBNA-1 protein.” left out
as §3, with “HEPES buffered saline×2 (2×HBS, 280 mM NaCl, 20 mM HEPES acid, 1.5 mM Na2 HPO4, pH 7.05-7.12) was then added dropwise to a total of 500 μl, with continuous vortexing at room temperature.” left out
as §4
Radioligand binding studies on plasma membrane fractions prepared for cells stably transfected with the cat or human receptor were performed as follows. Cells washed with TME buffer were scraped from the bottom of the flasks and homogenized for 30 sec using a Brinkman PT 10/35 polytron. TME buffer was added as necessary to achieve a 40 ml volume in the centrifuge tubes. TME is comprised of 50 mM TRIS base, 10 mM MgCl2, 1 mM EDTA; pH 7.4 is achieved by adding 1 N HCl. The cell homogenate was centrifuged at 19,000 rpm for 20-25 min at 4° C. using a Beckman Ti-60 or Ti-70 rotor. The pellet was then resuspended in TME buffer to provide a final protein concentration of 1 mg/ml, as determined by Bio-Rad assay. Radioligand binding assays were performed in a 100 μl or 200 μl volume.
The binding of [^3H](N) PGE2 (specific activity 165 Ci/mmol) was determined in duplicate and in at least 3 separate experiments. Incubations were for 60 min at 25° C. and were terminated by the addition of 4 ml of ice-cold 50 mM TRIS-HCl followed by rapid filtration through Whatman GF/B filters and three additional 4 ml washes in a cell harvester (Brandel). Competition studies were performed using a final concentration of 2.5 or 5 nM [^3H](N) PGE2 and non-specific binding was determined with 10^−5 M unlabelled PGE2.

hIP = biological target: T6, hIP (Homo sapiens, UniProt P43119); assay: Functional data, human recombinant IP receptor stable transfectants; type: cell-based
T6 construct: expressed in transfected cells
T6 sequence (P43119 whole entry): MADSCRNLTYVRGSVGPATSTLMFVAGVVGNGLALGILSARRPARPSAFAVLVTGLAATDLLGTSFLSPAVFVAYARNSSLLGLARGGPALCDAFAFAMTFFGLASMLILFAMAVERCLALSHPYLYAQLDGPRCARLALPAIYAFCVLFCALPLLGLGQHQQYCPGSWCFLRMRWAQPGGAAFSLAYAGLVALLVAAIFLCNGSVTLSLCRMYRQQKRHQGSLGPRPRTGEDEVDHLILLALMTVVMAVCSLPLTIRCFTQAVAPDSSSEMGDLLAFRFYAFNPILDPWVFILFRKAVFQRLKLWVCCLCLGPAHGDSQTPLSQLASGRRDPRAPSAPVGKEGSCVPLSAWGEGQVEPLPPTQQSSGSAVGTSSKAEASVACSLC
Procedure: as §1, §2
For transfection, the cells were grown to 50-60% confluency on 10 cm plates. The plasmid pCEP4 incorporating cDNA inserts for the respective human prostanoid receptor (20 μg) was added to 500 μl of 250 mM CaCl2. HEPES buffered saline×2 (2×HBS, 280 mM NaCl, 20 mM HEPES acid, 1.5 mM Na2 HPO4, pH 7.05-7.12) was then added dropwise to a total of 500 μl, with continuous vortexing at room temperature. […]

hEP3D = biological target: T7, hEP3D (Homo sapiens, UniProt P43115); assay: Radioligand binding, hEP3D; conditions: [3H]PGE2 competition
T7 construct: expressed in transfected cells; host or cells: COS-7, transient transfection, plasma membrane fraction
T7 sequence (P43115 1-374 isoform P43115-4): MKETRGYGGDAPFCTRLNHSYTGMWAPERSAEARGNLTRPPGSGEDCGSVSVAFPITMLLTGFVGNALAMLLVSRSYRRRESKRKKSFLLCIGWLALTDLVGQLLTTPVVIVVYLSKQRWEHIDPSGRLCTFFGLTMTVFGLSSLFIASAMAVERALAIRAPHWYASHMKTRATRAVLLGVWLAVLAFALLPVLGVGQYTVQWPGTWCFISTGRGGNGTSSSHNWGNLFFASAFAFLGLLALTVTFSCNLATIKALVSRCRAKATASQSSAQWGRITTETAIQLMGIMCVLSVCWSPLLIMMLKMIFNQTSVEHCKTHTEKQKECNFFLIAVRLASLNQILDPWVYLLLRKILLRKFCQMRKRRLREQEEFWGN
Procedure: For radioligand binding on the transient transfectants, plasma membrane fraction preparation was as follows. COS-7 cells were washed with TME buffer, scraped from the bottom of the flasks, and homogenized for 30 sec using a Brinkman PT 10/35 polytron. TME buffer was added to achieve a final 40 ml volume in the centrifuge tubes. The composition of TME is […]; 10N HCl is added to achieve a pH of 7.4.
The cell homogenate was centrifuged at 19000 rpm for 20 min at 4° C. using a Beckman Ti-60 rotor. The resultant pellet was resuspended in TME buffer to give a final 1 mg/ml protein concentration, as determined by Biorad assay. Radioligand binding assays were performed in a 200 μl volume.
The binding of [^3H] PGE2 (specific activity 165 […]) at EP3D, receptors and [^3H]-SQ29548 (specific activity 41.5 Ci mmol^−1) at TP receptors were determined in duplicate in at least three separate experiments. Radiolabeled PGE2 was purchased from Amersham, radiolabeled SQ29548 was purchased from New England Nuclear. […] Competition studies were performed using a final concentration of 2.5 or 5 nM [^3H]-PGE2, or 10 nM [^3H]-SQ 29548 and non-specific binding determined with 10 μM of the respective unlabeled prostanoid. […]

SMILES | hEP1 functional EC50 (hEP1) | EC50 (hEP3A) | EC50 (hEP4 [1]) | EC50 (hTP) | IC50 (hEP2) | IC50 (hEP4 [2]) | EC50 (hIP) | EC50 (hEP1) | hEP3A functional EC50 (hEP3A) | IC50 (hEP3D)
O=C(O)CCCCCCN1C(=O)CC[C@@H]1/C=C/C(O)Cc1cccc(Cl)c1 (stereo partly drawn) [Example 1a, 7-[2S-[3R-Hydroxy-4-(chloro-phenyl)-but-1-enyl]-5-oxo-pyrrolidin-1-yl]-heptanoic acid] | hit | 324 nM | 0.02 nM | > 10000 nM | > 10000 nM | 0.4 nM | – | – | – | –
CCOC(=O)CCCCCCN1C(=O)CC[C@@H]1/C=C/C(O)Cc1cccc(C(F)(F)F)c1 (stereo partly drawn) [Example 6a, 7-[2S-[3R-Hydroxy-4-(3-trifluoromethyl-phenyl)-but-1-enyl]-5-oxo-pyrrolidin-1-yl]-heptanoic acid, ethyl ester] | – | > 10000 nM | 26 nM | – | – | 200 nM | > 10000 nM | – | – | –
O=C(O)CCCCCCN1C(=O)CC[C@@H]1CCC(=O)Cc1cccc(C(F)(F)F)c1 [Example 7, 7-[2S-[3-Oxo-4-(trifluormethylphenyl)-butyl]-5-oxo-pyrrolidin-1-yl]-heptanoic acid] | – | – | 551 nM | > 10000 nM | – | 2200 nM | – | > 10000 nM | hit | –
O=C(O)CCCCCCN1C(=O)CC[C@@H]1/C=C/C(=O)Cc1cccc(C(F)(F)F)c1 [Example 7a, 7-[2S-[3-Oxo-4-(trifluormethylphenyl)-but-1-enyl]-5-oxo-pyrrolidin-1-yl]-heptanoic acid] | – | – | 86 nM | – | > 10000 nM | 500 nM | – | > 10000 nM | hit | –
O=C(O)CCCCCCN1C(=O)CC[C@@H]1/C=C/C(=O)Cc1ccccc1 [Example 11a, 7-[2S-[3-Oxo-4-(phenyl)-but-1-enyl]-5-oxo-pyrrolidin-1-yl]-heptanoic acid] | – | – | 29 nM | > 10000 nM | – | – | – | – | hit | 300 nM
